In US11377423B2, “Inhibitors of histone deacetylase” (The Broad Institute, Inc., priority 2012, dated 2022):

Experiments:
[1] = system: dopaminergic signaling; assay: Amphetamine-induced hyperactivity (AIH); type: in vivo; conditions: mice, 10 mg/kg once daily, data 18-24 h after the 7th dose
Description: Compounds of the invention were evaluated for their ability to influence dopaminerigic signaling according to the following procedure. Mice were dosed once daily with 10 mg/kg of compound 1. Data collected 18-24 h after the 7th dose. Amphetamine-induced hyperactivity (AIH) was examined in eight identical open-field chambers (16.5″×16″×12″; AccuScan Instruments, Columbus, Ohio). Activity was detected by infrared beam breaks and recorded automatically by VersaMax software (AccuScan). Daily sessions were automatically binned in 5 minute intervals (VersaDat; AccuSacn) for statistical analysis. AIH was run over three consecutive days as follows:
Day 1: Habituation: Mice were placed into the open-field for 20 minutes and then removed for a saline injection. Mice were placed back into the open-field for an additional 30 minutes, at which point the mice were returned to their home cage.
Day 2: Baseline Motor Activity: This phase was run identically to Day 1, with the exception that the second day lasted for one hour (20 minutes pre-injection; 40 minutes post-injection).
Day 3: Amphetamine Challenge: Mice were placed in the open-field. After 20 minutes, mice were removed and challenged with amphetamine, and placed back in the open-field for 80 minutes.
**Note: All HDAC inhibitor treatments occurred 18-25 hours prior to behavioral testing. […]

[2] = Fear conditioning assay in normal animals; type: in vivo; conditions: wild type normal mouse, single dose
Text: In one aspect, the invention provides methods and compositions for promoting cognitive function and enhancing learning and memory formation in both normal subjects as well as those suffering from memory loss and cognitive function disorders/impairments. […] A normal subject, as used herein, is a subject that has not been diagnosed with a disorder associated with impaired cognitive function. “Cognitive function” refers to mental processes of a subject relating to information gathering and/or processing; the understanding, reasoning, and/or application of information and/or ideas; the abstraction or specification of ideas and/or information; acts of creativity, problem-solving, and possibly intuition; and mental processes such as learning, perception, and/or awareness of ideas and/or information. The mental processes are distinct from those of beliefs, desires, and the like.

[3] = system: INS-1E cells; assay: Insulin assay (glucose-stimulated insulin secretion and insulin content, ELISA); type: cell-based, rat; conditions: 10 μM, palmitate and 25 mM glucose, 24 h
Description: INS-1E cells (20,000 cells/well) were seeded in 96-well plates in 100 uL complete medium. After overnight incubation media was removed and cells were exposed to 100 uL medium/well with the indicated concentrations of palmitate, glucose, HDAC inhibitors and/or vehicle. […] Cells were subsequently incubated with KRBH buffer containing 2 mM or 16 mM glucose for 1 hour. Supernatants were collected for measurement of insulin. For measuring insulin content, cells were washed in PBS and lysed using Passive Lysis Buffer. Insulin was measured with a rat insulin ELISA kit (Alpco). Total insulin content was normalized to total protein (Bradford assay). Each condition was assayed in biological duplicates. Specifically, HDAC3 inhibition is shown to preserve the glucose-induced insulin secretory function. […] FIGS. 13A to 13B are a series of bar graphs. […] Glucose-stimulated insulin secretion and total insulin content were assessed by ELISA. Data are presented as fold to CTRL+SEM, n=3-5, ns=not significant, *p<0.05, **p<0.01, ***p<0.001 vs. CTRL, #p<0.05, ##p<0.01, ###p<0.001 vs. respective treatment. ANOVA with Tukey- or Dunnet-corrected test, or Student's t-test (insulin content).

[4] = system: INS-1E cells; assay: Insulin gene Ins1 and Ins2 expression by qPCR; type: cell-based, rat; conditions: 10 μM, glucolipotoxicity, 24 h
Description: INS-1E cells (one million/well) were seeded in 6-well plates in 2 mL complete medium. After two days, medium was removed and cells were exposed to 2 mL medium/well with the indicated concentrations of palmitate, glucose, HDAC inhibitors and/or vehicle. RNA was purified (Qiagen) and cDNA synthesis performed done according to manufacturers' guidelines (Applied Biosystems) and real-time PCR performed using the SYBR green method (Applied Biosystems). Each cDNA sample in triplicate was subjected to two individual PCR amplifications either for the gene of interest or the reference gene β-actin. See table below for primer sequences. Compounds of the invention counteract glucolipotoxic reductions in insulin gene […] and […] expression. […] The gene expression in FIGS. 13A and 13B were analyzed by qPCR. […] Glucose-stimulated insulin secretion and total insulin content were assessed by ELISA. Data are presented as fold to CTRL+SEM, n=3-5, ns=not significant, *p<0.05, **p<0.01, ***p<0.001 vs. CTRL, #p<0.05, ##p<0.01, ###p<0.001 vs. respective treatment. ANOVA with Tukey- or Dunnet-corrected test, or Student's t-test (insulin content).

[5] = system: INS-1E cells; assay: ROS formation (CM-H2DCFDA probe); type: cell-based, rat; conditions: 10 μM, GLT, 48 hrs
Description: INS-1E cells (50,000 cells/well) were seeded in 96-well plates in 100 uL complete medium. Two days after incubation, medium was removed and cells exposed to 100 uL medium/well with the indicated concentrations of palmitate, glucose, test compounds and/or vehicle. After 24 hours, cells were aspirated and incubated for 45 min in phenol […] RPMI (Invitrogen) containing 10 μM CM-H2DCFDA probe (Molecular Probes). Wells were subsequently washed twice with phenol red-free RMPI, incubated for 3 min with Hoechst 33342 (10 ug/mL) in phenol red-free media, followed by a final washing step. Fluorescence was captured by an IX Micro automated fluorescence microscope (Molecular Devices) and quantification of ROS per cell was analyzed using MetaXpress software (Molecular Devices). Each condition was assayed in five biological replicates. Glucolipotoxicity causes oxidative stress in β cells via increased ROS formation from mitochondria. […] ROS formation per cell (48 hrs) was measured using the CM-H2DCFDA probe and Hoechst staining. Data are presented as fold to CTRL+SEM n=3-4, ns=not significant, **p<0.01, ***p<0.001 vs unexposed cells; #p<0.05, ##p<0.01, vs. GLT treated cells, ANOVA with Tukey corrected test.

[6] = system: FGF21; assay: FGF21 mRNA expression in HepG2 cells; type: cell-based, human
Description: Compounds of the invention were evaluated for their ability to upregulate FgF21 mRNA expression in HepG2 cells. FgF21 (Fibroblast growth factor 21) is a potent insulin sensitizer and stimulatory signal for fat oxidation. (Li, H. et al. Diabetes, 61, 797, 2012; […]., The American Journal of Clinical Nutrition, 91, […], 2010). The assay protocol was as follows. HepG2 cells were cultured in DMEM and 10% FBS. […] We treated cells with the indicated compounds for two hours, and lysed and extracted mRNA using the Rneasy kit (Qiagen). […] Quantitative PCR was performed using Taqman probes specific for human FGF21 and human actin.

CC(=O)Nc1ccc(C(=O)Nc2ccc(F)cc2N)cc1 [Compound 1, 4-acetamido-N-(2-amino-4-fluorophenyl)benzamide]
effect on amphetamine-induced hyperactivity [1]: potentiates | effect in fear conditioning assay [2]: no effect was observed | glucose-stimulated insulin release [3]: restoring insulin release | insulin content [3]: restoring insulin content | insulin gene Ins1 expression [4]: partially restoring insulin gene Ins1 expression | insulin gene Ins2 expression [4]: partially restoring insulin gene Ins2 expression | glucolipotoxicity-induced ROS formation [5]: reduces glucolipotoxicity-induced ROS formation | FGF21 expression (FGF21/actin), dose response [6]: dose response increases in FGF21 expression | FGF21 mRNA expression ([6]; 20 μM, two hours): upregulates FGF21 mRNA expression
